Results taken from publication PMC11468294, “Peptide Amphiphiles as Biodegradable Adjuvants for Efficient Retroviral Gene Delivery” (Advanced Healthcare Materials, 2023).
Where a SMILES comes first, the peptide text is derived from it. The star is where a group is joined. Palmitoyl = CCCCCCCCCCCCCCCC(=O)*

Legend:
[1] = test system: HIV-1 infection of TZM-bl cells; assay: HIV-1 infection assay (β-galactosidase luminescence reporter); assay type: cell-based; settings: infectivity enhancing if n-fold at 1.3 µM larger than 2
Procedure, shortened: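 TZM-bl cells (10000 per well) were seeded one day before infection. Peptide nanofibril solution was mixed 1:1 (v/v) with HIV-1 (1:500 dilution) for 10 min before inoculation. Infection was read as β-galactosidase luminescence, in technical triplicates across three independent experiments.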

CD4+ T cells [2] = assay: Confocal microscopy degradation study with CD4+ T cells; assay type: in vitro ADME, Human; settings: 1 µg peptide (5 µg mL-1) added to 250,000 cells, 37°C, 30 min vs 3 d; Proteostat stain
Method: Confocal laser scanning microscopy and degradation study with PA1‐3 and CD4+ T cells: The degradation of the peptide assemblies on CD4+ T cells was determined by analyzing fluorescence microscopy images. To this end, 4 µL of the preassembled peptide fibrils EF‐C, PA1 and PA2 (1 mg mL^−1, 1 d in PBS) were mixed with 4 µL of Proteostat (Enzo Life Science, 1 µL stock in 99 µL PBS) and incubated for 15 min. 2 µL of the stained fibrils were added to 198 µL preactivated and nucleus stained (Hoechst 33 342) CD4+ T cells (200 µL, 0.25 × 10^6) resulting in a final 5 µg mL^−1concentration of the peptide. After incubation for 30 min at 37°C the cells were washed with 3x with PBS and incubated in medium (supplemented RPMI containing IL‐15 and 7). Microscopy was conducted on a Zeiss LSM 710 confocal microscope with 20x and 63x objective and laser excitation wavelengths of 405 nm (Hoechst) and 561 nm (Proteostat). The measurements were performed after 30 min and 3 d of incubation at 37°C without any washing step in between. Control experiments to analyze changes of fibril aggregation were conducted analogously without the presence of cells. The evaluation of aggregate size and number was conducted by analyzing Proteostat stained aggregates via the 3D objects counter function of ImageJ 1.53f51 for 5 individual measurements (area 708.5 µm × 708.5 µm) of three individually repeated experiments.

CD4+ T cells [3] = assay type: cell-based, Human; settings: 0.26, 1.3, 6.5 µM, 3 days; LIVE/DEAD Fixable Aqua stain
Method: γ‐Retroviral transduction Assay CD4+ T cells: Human CD4+ T cells were isolated from a Buffy coat using RosetteSep Human CD4+ Enrichment Cocktail ([…] Technologies) according to manufacturer's protocol. Isolated T cells were activated using Dynabeads Human T‐Activator CD3/CD28 (GibcoTM) according to manufacturer's protocol in presence of 10 ng mL^−1 IL‐2 (Miltenyi Biotec) for three days. After 3 days the magnetic Dynabeads were removed using a magnet and T cells were cultured in presence of 9 ng mL^−1 IL‐7 (Miltenyi Biotec) and 10 ng mL^−1 IL‐15 (Miltenyi Biotec). After 1 day 5 × 10^5 T cells were transduced with GALV‐γ‐RV in absence and presence of PA1, PA2, EF‐C (0.26, 1.3 and 6.5 µM) and Vectofusin−1 (10 µg mL^−1; Miltenyi Biotec), or RetroNectin (20 µg mL^−1; Takara Bio). […] After 3 days GFP+ T cells were analyzed by flow cytometry. Viability was determined using LIVE/DEAD Fixable Aqua Dead Cell Stain Kit (ThermoFisher Scientific) according to manufacturer's protocol. […]
Figure S7 Viability of CD4+ T cells. […] Dead cells were initially eliminated by gating on viability dye-negative cells (SSC-A vs. Fixable Aqua Fluorescence) and afterwards for singlets (FSC-H vs. FSC-A). GFP+ cells were measured using the FITC channel. […]

[4] = test system: GALV-RV transduction of Jurkat cells; assay: γ-Retroviral infection assay of Jurkat cells (GFP+ cells by flow cytometry); assay type: cell-based; settings: three days after transduction, increasing peptide concentration, performed once
Method: γ‐Retroviral Infection Assay of Jurkat cells: 50000 Jurkat cells were seeded in 180 µl supplemented RPMI. The cells were inoculated with 20 µl PNF solution 1:1 (v/v) mixed with virus (1:3.2 dilution) after an incubation time of 10 min. The effect of peptide fibrils on retroviral transduction of Jurkat cells was analyzed 3 days post infection by determining the percentage of GFP + cells by flow cytometry. All assays were conducted as described before.^[ [20] ^]

[5] = ATR-FT-IR β-sheet content; assay type: physicochemical; settings: ATR-IR of lyophilized fibril solutions (1 mg mL-1, PBS); peak integration at 1630 cm-1 in 2nd derivative of amide I region
Method: ATR‐FT‐IR: ATR‐IR spectra acquisition and the calculation of β−sheet content were conducted according to a previous report.^[ [20] ^] Briefly, FT‐IR spectra of solid samples were recorded after lyophilization of fibril solutions using a Bruker Tensor II spectrometer equipped with a diamond crystal as ATR element with a spectral resolution of 2 cm–1, each spectrum was an average of 64 scans. The data was processed with Origin software. β−sheet amount was determined by calculating the integral of the peak at 1630 cm^−1 (β‐sheet) relative to the integral between 1650–1700 cm^−1 (native structure) from the 2nd derivative of the FT‐IR spectra.

[6] = Zeta-potential measurement; assay type: physicochemical; settings: fibrils 1 mg mL-1 in PBS, 60 µL diluted in 600 µL 1 mM KCl; triplicates
Method: Zeta‐potential: 60 µL of the peptides (1 mg mL^−1) were diluted in 600 µL, 1 mM KCl solution and placed in a disposable folded capillary cuvette. All zeta‐potential measurements (Zetasizer, Malvern Instruments) were conducted in triplicates for each sample.

Molecule | infectivity enhancement of HIV-1 (in words) [1] | degradation of aggregates by CD4+ T cells (in words) (CD4+ T cells [2]) | viability of CD4+ T cells (CD4+ T cells [3]) | transduction enhancement of Jurkat cells (GFP+ cells, in words) [4] | β-sheet content [5] | Zeta-Potential [6]
C16-VVVAAAKKK-NH2 [PA1] | strong infectivity enhancement of HIV‐1 in the range of EF‐C | almost all small aggregates of PA1 are degraded by CD4+ T cells | did not reduce the viability | strong transduction enhancement similar to EF‐C | 57% | +22.2 ± 0.7 mV
CCCCCCCCCCCCCCCC(=O)N[C@@H](Cc1ccccc1)C(=O)N[C@@H](CCC(N)=O)C(=O)N[C@@H](Cc1ccccc1)C(=O)N[C@@H](CCCCN)C(=O)N[C@@H](Cc1ccccc1)C(=O)N[C@@H](CCCCN)C(=O)N[C@@H](CS)C(N)=O [PA2] (Palmitoyl-FQFKFKC-NH2) | strong infectivity enhancement of HIV‐1 in the range of EF‐C | not degraded as efficiently | did not reduce the viability | strong transduction enhancement similar to EF‐C | 59% | +19.2 ± 3.4 mV
